Entries after “also recorded” stand apart in the source; their conditions may differ.
Legend:
[1] = tested on: MC3T3-E1 cells; experiment: Osteoblast differentiation, ALP activity in MC3T3-E1 cells; type: cell-based, mouse; details: incubated 7 to 21 days with test sample, absorbance at 405 nm, FIGS. 1A to 1D
Procedure: (§1) MC3T3-E1 cells, pre-osteoblast cells, were suspended in α-MEM and plated in each well of the 96 well-microplate with 4×10^3 cells/well. Then, they were pre-incubated for 2 days at 37° C., 5% CO2 incubator. On day 3 from the beginning of the pre-incubation, culture medium in the wells were changed to α-MEM containing each concentration of test sample, 50 μg/mL of ascorbic acid and 10 mM β-glycerophosphoric acid, and then incubated for 7 to 21 days. In the incubation, the culture medium in the wells was exchanged in every 3 or 4 days.
After the incubation period, the cells were fixed by using methanol. After drying the dish, activity of alkaline phosphatase (ALP), a marker enzyme of early stage osteoblast differentiation, was measured, and subjected to ALP staining.
In the measurement of ALP activity, a buffer containing 6.7 mM p-nitrophenylphosphate as a substrate, supplemented 2 mM magnesium chloride and 100 mM tris-HCl, pH 8.5. 100 μL of the buffer was plated in each well, incubated in 30 minutes at 37° C. Then, 100 μl of 0.1 N sodium hydroxide was added to the wells to terminate the reaction. After that, the absorbance at 405 nm was measured by using the plate reader and the absorbance value was used as ALP activity.
In ALP staining, the buffer containing 0.1 mg/ml naphtol AS-MX phosphate, 0.6 mg/ml fast blue BB salt, supplemented 2 mM magnesium chloride and 10 mM tris-HCl pH 8.5 was used. 50 μL of the buffer was added to each well of the 96 well-microplate and incubated for 30 minutes to 1 hour to stain.

[2] = tested on: MC3T3-E1 cells; experiment: Cytotoxicity by Cell Counting kit-8 or MTT (total cell numbers); type: cell-based, mouse; details: for cell number decreasing (cytotoxicity): by 30 μM
Procedure: After incubation of the same condition as described above, cytotoxicity was measured by using the Cell counting kit-8 or MTT according to the conventional method.
Cytotoxicity was measured by using Cell Counting kit-8 or MTT according to conventional method, after MC3T3-E1 was incubated in the same conditions as (2) described above.

[3] = tested on: MC3T3-E1 cells; experiment: Calcification of calcium by osteoblast, Alizarin red S staining; type: cell-based, mouse
Procedure: as §1
Calcification of osteoblast cells were confirmed by Alizarin red S staining.
Effects of the above-mentioned four compounds and glycosides to the calcification of calcium by osteoblast were shown in FIG. 5.

[4] = tested on: excised first molar of C57BL/6 mice grafted under capsule of kidney; experiment: Graft culture of excised tooth with impregnated agarose beads under kidney capsule, alveolar bone formation; type: in vivo, mouse; details: three agarose beads impregnated in 100 μM acerogenin A embedded into dental pulp, 3 weeks graft culture, compared to D-PBS bead negative control; FIG. 4B
Procedure: Agarose beads impregnated in acerogenin A (hereinbelow, it is referred to as “acerogenin A-impregnated beads”) were prepared as follows. acerogenin A was diluted to 100 μM (at final concentration) by using D-PBS. Affi-Gel agarose beads were washed by using PBS. Washed agarose beads were placed in the 1.5 mL Eppendorf tube with flat bottom and 100 μL of the acerogenin A solution was added into it. Then, the tube was incubated at room temperature for 45 minutes to impregnated acerogenin A into the agarose beads. Acerogenin-impregnated agarose beads obtained were used for embedding under dental pulp in below.
Alternatively, as negative control, agarose beads similarly to prepare the acerogenin A-impregnated beads but impregnated in D-PBS without acerogenin A (hereinbelow, it is referred to as “D-PBS-impregnated beads”) were used.
Five days age of […] mice, where their dental roots-periodontal tissue was just before formed, were anesthetized and sacrificed by decapitation. After excised lower jaw of them, the first molars in the lower jaw were excised with dental follicles. For the test group, three acerogenin A-impregnated agarose beads were embedded into the dental pulp of the excised teeth, the first molar in the lower jaw. […]

Oc1ccc2cc1Oc1ccc(cc1)CCCC[C@@H](O)CC2 [(R)-acerogenin B, 2-Oxatricyclo[13.2.2.13,7]eicosa-3,5,7(20),15,17,18-hexaene-4,10-diol, (10R)-(9CI)]
ALP activity (early stage osteoblast differentiation) [1]: enhanced ALP activity | cell number decreasing (cytotoxicity) ([2]; FIGS. 2B and D): not observed | cell numbers (cytotoxicity) ([2]; by 100 μM, FIGS. 2B and D): not affected | calcification activity level of calcium, rank order [3]: (R)-acerogenin B>aceroside I≅acerogenin A>aceroside B1

OC[C@H]1O[C@H](Oc2ccc3cc2Oc2ccc(cc2)CC[C@@H](O)CCCC3)[C@H](O)[C@@H](O)[C@@H]1O [aceroside I, α-D-Glucopyranoside, (12S)-12-hydroxy-2-oxatricyclo[13.2.2.13,7]eicosa-3,5,7(20),15,17,18-hexaen-4-yl (9CI)]
ALP activity (early stage osteoblast differentiation) [1]: enhanced ALP activity; also recorded: dose-dependently enhanced | cell numbers (cytotoxicity) ([2]; FIGS. 2A and C): not affected | cell numbers (cytotoxicity) at high concentration ([2]; FIGS. 2A and C): slightly decreased | calcification activity level of calcium, rank order [3]: (R)-acerogenin B>aceroside I≅acerogenin A>aceroside B1

OC[C@H]1O[C@@H](Oc2ccc3cc2Oc2ccc(cc2)CCCC[C@@H](O)CC3)[C@H](O)[C@@H](O)[C@@H]1O [aceroside B1, α-D-Glucopyranoside,(10R)-10-hydroxy-2-oxatricyclo[13.2.2.13,7]eicosa-3,5,7(20),15,17,18-hexaen-4-yl (9CI)]
ALP activity (early stage osteoblast differentiation) [1]: enhanced ALP activity | cell number decreasing (cytotoxicity) ([2]; FIGS. 2B and D): not observed | cell numbers (cytotoxicity) ([2]; by 100 μM, FIGS. 2B and D): not affected | calcification activity level of calcium, rank order [3]: (R)-acerogenin B>aceroside I≅acerogenin A>aceroside B1

Oc1ccc2cc1Oc1ccc(cc1)CC[C@H](O)CCCC2 [acerogenin A, 2-Oxatricyclo[13.2.2.13,7]eicosa-3,5,7 (20),15,17,18-hexaene-4,12-diol, (12R)-(9CI)]
ALP activity (early stage osteoblast differentiation) [1]: enhanced ALP activity | cell numbers (cytotoxicity) ([2]; FIGS. 2A and C): not affected | cell numbers (cytotoxicity) at high concentration ([2]; FIGS. 2A and C): slightly decreased | calcification activity level of calcium, rank order [3]: (R)-acerogenin B>aceroside I≅acerogenin A>aceroside B1 | alveolar bone formation of grafted tooth [4]: prominent extension of alveolar bone formation

Reference: patent US8822705B2, “Pharmaceutical composition for preventing and/or treating bone disease, functional food or health food and pharmaceutical preparation comprising thereof as active ingredient” (priority 2006, dated 2014)
